Source: PubChem BioAssay (NCI)
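Dose response: 5 concentrations. Exposure: 48 h. Format: 96-well plates. Endpoint: linear interpolation; highest concentration if not reached. Abbreviation: GI50, concentration required for 50% inhibition of growth. TGI: concentration producing complete growth inhibition.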

Columns and labels:
Assay in all cases: NCI tumour cell line growth inhibition, 48 h
[1] = tested on: A498 renal
[2] = tested on: A549 NSCLC
[3] = tested on: CCRF-CEM leukemia
[4] = tested on: COLO 205 colon
[5] = tested on: HCC-2998 colon
[6] = tested on: KM12 colon
[7] = tested on: MOLT-4 leukemia
[8] = tested on: NCI-H23 lung
[9] = tested on: OVCAR-3 ovarian
[10] = tested on: RXF 393 renal
[11] = tested on: SK-OV-3 ovarian
[12] = tested on: SN12C renal
[13] = tested on: SNB-75 CNS
[14] = tested on: U251 CNS
[15] = tested on: UACC-62 melanoma
[16] = tested on: PC-3 prostate

SMILES | TGI [1] [µM] | TGI [2] [µM] | TGI [3] [µM] | TGI [4] [µM] | TGI [5] [µM] | TGI [6] [µM] | TGI [7] [µM] | TGI [8] [µM] | TGI [9] [µM] | TGI [10] [µM] | TGI [11] [µM] | TGI [12] [µM] | TGI [13] [µM] | TGI [14] [µM] | TGI [15] [µM] | TGI [16] [µM] | GI50 [1] [µM] | GI50 [5] [µM]
COc1ccc(OC)c(/C=C2\CCc3ccccc3C2=O)c1 | 19.7 | 65.6 | 14.8 | 13.5 | 9.35 | 12.5 | 19.8 | 17.3 | 7.67 | 6.07 | 18.8 | 25.5 | 3.52 | 14.4 | 5.39 |  |  | 
CSc1ccc(NC(=O)C2c3[nH]c4ccccc4c3C3CCC(C(C)(C)C)CC3C2C(=O)O)cc1 (configuration not stated) | 35.4 | 30.9 | 25.8 | 32 | > 100 |  | 31.4 | 58.7 |  | 49.5 | 37.3 | 36.8 | 37.9 | 31.8 | 67.1 |  |  | 
COc1cc([C@@H]2c3cc4c(cc3[C@@H](OC(=O)c3cccc(N)c3)C3COC(=O)[C@@H]32)OCO4)cc(OC)c1O (some centres not stated) | 16.6 | 25.9 | > 43 | > 45.6 | 28.7 | > 73.5 | > 59.8 | 6.2 | > 100 | 83.5 | > 75.2 | 31.3 | > 100 | 22.9 | 24.1 |  |  | 
Nc1nc(Cl)c2ncn(Cc3cccc(CCl)c3)c2n1 | 50.8 | 29.9 | > 30.7 | 30.1 | 4.86 | 16 | > 30.8 | 4.23 | 3.74 | 10.5 | 50.8 | 22.4 | 26.8 | 6.15 | 10.9 | 26.4 |  | 
CN(C)c1ccc(/C=N/c2nc3cc4sc(/N=C/c5ccc(N(C)C)cc5)nc4cc3s2)cc1 | > 100 | > 100 | > 100 | > 100 |  | > 100 | > 100 | > 100 | > 100 |  | > 100 | > 100 | > 100 | > 100 | > 100 | > 100 |  | 
CC1=NN2C(c3ccc([N+](=O)[O-])cc3)=CSC2=NC(C)(C)C1 | > 100 | > 100 | > 100 | > 100 | > 100 | > 100 | > 100 | > 100 | > 100 | > 100 | > 100 | > 100 | > 100 | > 100 | > 100 |  |  | 
C[P+](c1ccccc1)(c1ccc(Cl)cc1)c1ccc(Cl)cc1 | 98.3 | > 100 |  | 22 | 24 |  |  | 31.6 | 10.5 | > 100 | > 100 | 51.2 | 46 | 39.3 | 28.3 | 70.6 |  | 
Nc1nc(N)c2ncn(CCOC(c3ccccc3)P(=O)(O)O)c2n1 (configuration not stated) | > 100 | > 100 | > 100 | > 100 | > 100 | > 100 | > 100 | > 100 | > 100 | > 100 | > 100 | > 100 | > 100 | > 100 | > 100 |  |  | 
COc1ccc(CNc2nc(NCc3ccc(OC)cc3)nc(NC3CCCC3)n2)cc1 | > 100 | > 67.7 | > 100 | > 25.1 | 38.6 | 1.59 | > 100 | > 22.2 | > 23 | 3.61 | > 100 | > 100 | > 100 | > 25.3 | > 59.6 | > 100 | 62.1 | 3.67
O=C1OCC(c2ccc(Cl)cc2)=C1Cl | > 100 | > 100 | 75.6 | 70.4 | 47.8 | 36 | > 100 | 54.6 | 44.4 | 54.1 | > 100 | 80.4 | > 100 | > 100 | 45.9 | 67.9 |  | 
Cc1c2ccncc2c(C)c2c1[nH]c1ccc(Oc3ccccc3)cc12 | 11.4 | 4.8 | 9.41 |  | 3.18 | 9.49 | 6.44 | > 53.1 | 7.75 | 3.84 | 15.9 | 4.69 | 8.73 | 3.37 | 3.16 |  |  | 
Cn1c2ccccc2c2ccc3c(c21)C(=O)C(c1ccccc1)=CC3=O |  | > 100 | > 100 | > 100 | 56.4 | > 100 | > 100 | > 100 | 79.2 |  | > 100 | 52.3 | > 100 | > 100 |  |  |  | 
N#Cc1ccc(Oc2ccccc2)cc1C#N | > 100 | > 100 | 56.9 | 68.6 | > 100 | > 100 | > 100 | > 100 | > 100 | > 100 | > 100 | > 100 | > 100 | > 100 | > 100 |  |  | 
CC1(C)c2ccccc2N2O[C@@H]3C(=O)N(c4ccccc4)C(=O)[C@@H]3C21c1ccccc1 (some centres not stated) |  | > 100 | > 100 | > 100 | > 100 | > 100 | > 100 | > 100 | > 100 | > 100 | > 100 | > 100 | > 100 |  | > 100 |  |  | 
CC1(C)Cc2c(oc3ncnc(N)c23)CS1 |  | > 100 | > 100 | > 100 | > 100 | > 100 | > 100 | > 100 | > 100 |  | > 100 | > 100 | > 100 | > 100 | > 100 |  |  | 
